From EP1614683B1, “Indazole compounds and pharmaceutical compositions for inhibiting protein kinases, and methods for their use” (priority 1999, dated 2001)
Values joined by “and” are separate entries in the source; they are usually repeats but may differ in a detail not shown here. Equal values may be shown once. Read-outs that look alike come from different tables or passages of the source.

Assays:
in vitro = in vitro ADME, human; conditions: 2 h
How it was run: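 HLM diluted to 5 mg/mL in 100 mM KPO4, preincubated 10 min at 37 °C with NADPH-regenerating system. Compound (5 µM final) incubated at 37 °C in triplicate, sampled at 0 and 2 h into ice-cold acetonitrile, then LC-MS analysis.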

[1] = test system: VEGF dependent retinal neovascularization; test: Neonatal rat model of retinopathy of prematurity; format: in vivo; conditions: Model ROP, intravitreal, vehicle PEG/water 70:30
Experimental: A second model of VEGF dependent retinal neovascularization was employed to evaluate the activities of this series of compounds. […] The animals are exposed for 24 hours to a concentration of 50% oxygen followed by 24 hours at a concentration of 10% oxygen. This alternating cycle of hyperoxia followed by hypoxia is repeated 7 times after which the animals are removed to room air (P14). Compounds are administered via intravitreal injection upon removal to room air and the animals are sacrificed 6 days later (P20). The isolated retinas are then isolated, stained mounted and analyzed as detail above in the development model. The effectiveness was also graded as is described for the development model.

human FGF-R1 = human FGF-R1 (Homo sapiens, UniProt P11362, C488A/C584S/L457V); test: FGF-R spectrophotometric assay; format: biochemical; conditions: Table 1; compound concentration 1 µM; read-out: FGF-P* (% inhibition)
Experimental: The spectrophotometric assay was carried out as described above for VEGF-R2, except for the following changes in concentration: FGF-R = 50 nM, ATP = 2 mM, and poly(E4Y1) =15 mM.

[2] = test system: human umbilical vein endothelial cells (HUVEC); test: HUVEC proliferation assay (VEGF-stimulated, MTT); format: cell-based; conditions: Homo sapiens, HUVEC, Table 1
LCK tyrosine kinase = LCK tyrosine kinase (Homo sapiens, UniProt P06239, C224D/P223M); test: LCK spectrophotometric assay; format: biochemical; conditions: Table 1; compound concentration 1 µM; read-out: Lck-P* (% inhibition)
Experimental: The spectrophotometric assay was carried out as described above for VEGF-R2, except for the following changes in concentration: LCK = 60 nM, MgCl2 = 0 mM, poly(E4Y1) = 20 mM.

[3] = test system: VEGF dependent retinal vascular development; test: In vivo assay of retinal vascular development in neonatal rats; parameters: species or system rat; conditions: Model P8, intravitreal, 5 mg/ml, vehicle PEG/water 50:50
Experimental: The development of the retinal vascular in rats occurs from postnatal day 1 to postnatal day 14 (P1-P14). […] To assess the ability of specific compounds to inhibit the activity of VEGF in vivo, compounds were formulated in an appropriate vehicle, usually 50% polyethylene glycol, average molecular weight 400 daltons, and 50% solution of 300 mM sucrose in deionized water. […] Six days after the intravitreal injection, the animals were sacrificed and the retinas dissected free from the remaining ocular tissue. […] The individual retinas are then flat-mount onto glass slides and examined to determine the extent of vascularization. […] The amount of vessel regression was used to assess the relative potency of the compounds after in vivo administration.
For more quantitative analysis of regression, images of ADPase-stained, flat-mounted retinas were captured with a digital camera attached to a dissecting microscope. Retinal images were then imported into an image analysis software (Image Pro Plus 4.0, Media Cybernetics, Silver Spring, MD). The software was employed to determine the percentage of the area of the retina that contained stained vessels. This value for the experimental eye was compared to that measured for the vehicle injected, contralateral eye from the same animal. The reduction in the vascular area seen in the eye that received compound as compared to the vehicle-injected eye was then expressed as the "percent regression" for that sample.

[4] = for AUCleast: mouse, in vivo, pH 2.3; for T1/2: vehicle PEG400:H2O pH 2.3 60:40
[5] = target: unphosphorylated VEGF-R2Δ50 (Homo sapiens, UniProt P35968, DEL940-989/E990V); test: biochemical; conditions: read-out: FLVK ** (% inhibition)
in vivo = conditions: mouse, plasma, pH 2.3
[6] = + albumin, read-out: HUVEC + albumin IC50
[7] = human liver microsomes, 5 µM test compound, 37 °C

Chain of human FGF-R1 (P11362 456-766 L457V/C488A/C584S): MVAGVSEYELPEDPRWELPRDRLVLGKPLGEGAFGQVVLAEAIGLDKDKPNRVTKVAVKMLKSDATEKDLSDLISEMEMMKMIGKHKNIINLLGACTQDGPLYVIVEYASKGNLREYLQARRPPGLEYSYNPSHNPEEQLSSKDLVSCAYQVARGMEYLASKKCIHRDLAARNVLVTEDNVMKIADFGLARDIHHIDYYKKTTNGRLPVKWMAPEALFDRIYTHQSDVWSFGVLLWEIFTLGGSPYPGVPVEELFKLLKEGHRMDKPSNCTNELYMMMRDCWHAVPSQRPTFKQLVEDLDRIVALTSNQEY
Chain of LCK tyrosine kinase (P06239 223-509 P223M/C224D): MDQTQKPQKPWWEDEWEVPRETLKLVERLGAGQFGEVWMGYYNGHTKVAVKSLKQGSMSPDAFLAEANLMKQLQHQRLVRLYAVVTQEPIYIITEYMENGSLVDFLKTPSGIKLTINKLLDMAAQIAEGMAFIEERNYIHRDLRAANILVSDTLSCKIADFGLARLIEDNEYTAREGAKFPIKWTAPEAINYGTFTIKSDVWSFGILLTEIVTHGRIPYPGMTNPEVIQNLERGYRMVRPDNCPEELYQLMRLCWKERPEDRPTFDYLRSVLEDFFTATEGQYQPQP
Chain of unphosphorylated VEGF-R2Δ50 (P35968 with tags, fused parts or gaps DEL940-989/E990V limits assumed): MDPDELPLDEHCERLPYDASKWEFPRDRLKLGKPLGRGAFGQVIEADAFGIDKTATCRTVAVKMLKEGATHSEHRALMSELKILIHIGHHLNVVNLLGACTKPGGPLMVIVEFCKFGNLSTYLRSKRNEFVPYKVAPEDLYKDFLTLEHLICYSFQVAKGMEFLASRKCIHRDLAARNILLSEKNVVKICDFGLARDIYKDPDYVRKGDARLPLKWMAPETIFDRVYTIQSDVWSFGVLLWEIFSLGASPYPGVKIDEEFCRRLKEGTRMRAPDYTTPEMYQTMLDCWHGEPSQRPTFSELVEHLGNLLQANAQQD

Compound | inhibition at 1 µM (human FGF-R1) [%] | IC50 [2, 6] [µM] | inhibition at 1 µM (LCK tyrosine kinase) [%] | % Inhibition [3] [%] | % remain (HLM, 2 h) (in vitro; [7]) [%] | further results
CC(=O)c1cccc(C(=O)Nc2cccc(N(C)c3ccc4c(/C=C/c5ccc6c(c5)OCO6)n[nH]c4c3)c2)c1 [16(e), 3-Acetyl-N-(3-{[3-(2-benzo[1,3]dioxol-5-yl-vinyl)-1H-indazol-6-yl]-methyl-amino}-phenyl)-benzamide] | 59 | 0.106 | 8 | – | – | remaining at 2 h, 5 µM (in vitro; human liver microsomes, 5 µM test compound, 37 °C, read-out: % remain (HLM, 2 h)): 40%; % Inhibition ([1]; 1 mg/ml): 16%; % Inhibition ([1]; 5 mg/ml): 36% and 37%; Initial Evaluation ([1]; 5 mg/ml): ++ (two pluses being judged to be approximately 25-75 % regression); % Inhibition ([1]; 10 mg/ml): 54%; Initial Evaluation ([1]; 10 mg/ml): +++ (three pluses give to retinas with near total regression (approximately 75% or greater)); IC50 ([2]; read-out: HUVEC IC50): 0.0049 µM
CCCn1nc(C)cc1C(=O)Nc1cccc(C(=O)c2ccc3c(/C=C/c4ccccn4)n[nH]c3c2)c1 [41 (r)] | – | – | – | – | – | Initial Evaluation [3]: +/++ var; AUCleast ([4]; ip, 25 mg/kg): > 23.752 µg·h/mL; AUCleast ([4]; po, 50 mg/kg): > 17.789 µg·h/mL
C#CCNC(=O)c1ccccc1Nc1ccc2c(/C=C/c3ccccn3)n[nH]c2c1 [Example 39(b), 6-[2-(Prop-2-ynylcarbamoyl)phenylamino]-3-E-[2-(pyridin-2-yl)ethenyl]-1H-indazole] | – | – | – | 9 | – | % remain (HLM, 2 h) (in vitro; human, microsomes, 5 µM): 67%
Cc1nc(/C=C/c2n[nH]c3cc(C(=O)c4cccc(NC(=O)c5ccccc5)c4)ccc23)cs1 [Example 42(c)] | – | – | – | 36 | – | –
Cc1cc(C(=O)Nc2cc(Nc3ccc4c(/C=C/c5ccccn5)n[nH]c4c3)ccc2F)n(C)n1 [Example 49(a), 6-[N-(3-((1,3-Dimethyl-1H-pyrazol-5-yl)carboxamido)-4-fluorophenyl)amino]-3-E-[2-(pyridin-2-yl)ethenyl]-1H-indazole] | – | – | – | 54 | – | –
Cc1cc(C(=O)Nc2cc(Nc3ccc4c(/C=C/c5ccccn5)n[nH]c4c3)ccc2C)n(C)n1 [Example 49(b), 6-[N-(3-((1,3-Dimethyl-1H-pyrazol-5-yl)carboxamido)-4-methylphenyl)amino]-3-E-[2-(pyridin-2-yl)ethenyl]-1H-indazole] | 80 | – | 9 | 5 | – | inhibition at 0.05 µM [5]: 98%
CS(=O)(=O)c1ccc(C(=O)Nc2cccc(Oc3ccc4c(/C=C/c5ccccn5)n[nH]c4c3)c2)s1 [Reference Example 31(c), 6-[3-((5-methylsulfonylthien-2-yl)carboxamido)phenoxy]-3-E-[2-(pyridin-2-yl)ethenyl]-1H-indazole] | 98 | 0.0114 | 81 | – | 87 | Initial Evaluation [3]: +/++ var
Cc1ccc2cc(NC(=O)c3ccccc3Sc3ccc4c(/C=C/c5ccccn5)n[nH]c4c3)ccc2n1 [Reference Example 33(b)] | 77 | – | – | – | – | AUC (in vivo; ip, 25 mg/kg): 11.2 µg·h/mL; AUC (in vivo; po, 50 mg/kg): 3.93 µg·h/mL; Initial Evaluation ([1]; 10 mg/ml): ++ (two pluses being judged to be approximately 25-75 % regression); T1/2 ([4]; IP, 25 mg/kg): 3.0 h; T1/2 ([4]; PO, 50 mg/kg): 3.0 h
O=C(NCC(F)(F)F)c1ccccc1Sc1ccc2c(/C=C/c3ccccn3)n[nH]c2c1 [Reference Example 33(f), 6-[2-(2,2,2-trifluoroethylcarbamoyl)phenylsulfanyl]-3-E-[2-(pyridin-2-yl)ethenyl]-1H-indazole] | – | 0.017 | – | 20 | 31 | –
CCCNC(=O)c1ccccc1Sc1ccc2c(/C=C/c3ccccn3)n[nH]c2c1 [Reference Example 35(a), 6-[2-(n-Propylcarbamoyl)phenylsulfanyl]-3-E-[2-(pyridin-2-yl)ethenyl]-1H-indazole] | 59 | 0.0021 | 12 | 4 | 33 | inhibition at 0.05 µM [5]: 76%
O=C(NC1CCC1)c1ccccc1Sc1ccc2c(/C=C/c3ccccn3)n[nH]c2c1 [Reference Example 35(c), 6-[2-(Cyclobutylcarbamoyl)phenylsulfanyl]-3-E-[2-(pyridin-2-yl)ethenyl]-1H-indazole] | 42 | 0.0063 | 11 | 0 | 17 | inhibition at 0.05 µM [5]: 76%
C=CCONC(=O)c1ccccc1Sc1ccc2c(/C=C/c3ccccn3)n[nH]c2c1 [Reference Example 35(j), 6-[2-(Allyloxycarbamoyl)phenylsulfanyl]-3-E-[2-(pyridin-2-yl)ethenyl]-1H-indazole] | – | – | – | 7 | – | –
O=C(NCC1CC1)c1ccccc1Sc1ccc2c(/C=C/c3ccccn3)n[nH]c2c1 [Reference Example 35(v), 6-[2-(Cyclopropylmethyl-carbamoyl)phenylsulfanyl]-3-E-[2-(pyridin-2-yl)ethenyl]-1H-indazole] | 59 | 0.022 | 11 | 20 | 26 | inhibition at 0.05 µM [5]: 72%
Cc1cc(C(=O)Nc2cccc(C(=O)c3ccc4c(/C=C/c5ccccn5)n[nH]c4c3)c2)n[nH]1 [Reference Example 41(g), 6-[3-((5-methyl-1H-pyrazol-3-yl)carboxamido)benzoyl]-3-E-[2-(pyridin-2-yl)ethenyl]-1H-indazole] | 95 | > 0.01 | 36 | 37 | 52 | IC50 ([2]; read-out: HUVEC IC50): 0.0009 µM
O=C(c1cccc(NC(=O)C2CC2)c1)c1ccc2c(/C=C/c3ccccn3)n[nH]c2c1 [Reference Example 41(k), 6-[3-(cyclopropylcarboxamido)benzoyl]-3-E-[2-(pyridin-2-yl)ethenyl]-1H-indazole] | 49 | 0.048 | 20 | 1 | – | –
Cc1cc(C(=O)Nc2cccc(C(=O)c3ccc4c(/C=C/c5ccccn5)n[nH]c4c3)c2)on1 [Reference Example 41(m), 6-[3-((3-methylisoxazol-5-yl)carboxamido)benzoyl]-3-E-[2-(pyridin-2-yl)ethenyl]-1H-indazole] | 67 | 0.023 | 40 | 10 | 0 | –
Cc1cc(C(=O)Nc2cc(C(=O)c3ccc4c(/C=C/c5ccccn5)n[nH]c4c3)c(C)cc2C)n(C)n1 [Reference Example 41(mm), 6-[2,4-dimethyl-5-((1,3-dimethyl-1H-Pyrazol-5-yl)carboxamido)benzoyl]-3-E-[2-(pyridin-2-yl)ethenyl]-1H-indazole] | – | – | – | – | – | Initial Evaluation [3]: + (one plus being detectable regression judged to be approximately 25 percent or less)
Cn1nc(C(C)(C)C)cc1C(=O)Nc1cccc(C(=O)c2ccc3c(/C=C/c4ccccn4)n[nH]c3c2)c1 [Reference Example 41(n), 6-[3-((3-t-butyl-1-methyl-1H-pyrazol-5-yl)carboxamido)benzoyl]-3-E-[2-(pyridin-2-yl)ethenyl]-1H-indazole] | 87 | – | 66 | 2 | 70 | –
